Target: T1, Burkholderia pseudomallei L-asparaginase (Burkholderia pseudomallei, UniProt Q63UZ6)
T1 construct: gene ansB
Conditions: 10 mM substrate, 50 mM Tris-HCl pH 8.6, 37 °C, 10 min

T1 sequence (Q63UZ6 1-347 limits assumed): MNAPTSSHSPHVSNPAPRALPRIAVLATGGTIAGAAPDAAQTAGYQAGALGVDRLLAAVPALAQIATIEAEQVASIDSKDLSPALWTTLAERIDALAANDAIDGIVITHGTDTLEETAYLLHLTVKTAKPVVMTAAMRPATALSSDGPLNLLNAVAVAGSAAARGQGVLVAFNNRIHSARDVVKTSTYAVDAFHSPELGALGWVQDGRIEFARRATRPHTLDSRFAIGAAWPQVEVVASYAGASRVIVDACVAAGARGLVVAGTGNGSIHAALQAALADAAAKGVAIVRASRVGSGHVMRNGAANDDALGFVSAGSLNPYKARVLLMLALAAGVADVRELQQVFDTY

NC(=O)C[C@H](N)C(=O)O [L-asparagine]
ammonia release by Nessler's reagent: the purified recombinant enzyme displayed the maximum activity and specificity towards the reaction substrate L-asparagine
